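Exposure lasted 48 hours, with cells grown in 96-well plates and compounds tested at five concentrations. The concentration for full growth arrest is given as TGI.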
Experiments:
Assay in all cases: growth of human tumour cells (NCI), 48 h
RPMI-8226 leukemia = test system: RPMI-8226 leukemia
CCRF-CEM leukemia = test system: CCRF-CEM leukemia
HOP-62 NSCLC = test system: HOP-62 NSCLC
SK-OV-3 ovarian = test system: SK-OV-3 ovarian
HT29 colon = test system: HT29 colon
KM12 colon = test system: KM12 colon
XF 498 CNS = test system: XF 498 CNS
U251 CNS = test system: U251 CNS
SK-MEL-28 melanoma = test system: SK-MEL-28 melanoma
SK-MEL-5 melanoma = test system: SK-MEL-5 melanoma
UO-31 renal = test system: UO-31 renal
SF-539 CNS = test system: SF-539 CNS
KM20L2 colon = test system: KM20L2 colon
M19-MEL melanoma = test system: M19-MEL melanoma
DLD-1 colon = test system: DLD-1 colon
786-0 renal = test system: 786-0 renal
NCI-H522 lung = test system: NCI-H522 lung
OVCAR-8 ovarian = test system: OVCAR-8 ovarian
CAKI-1 renal = test system: CAKI-1 renal
K-562 leukemia = test system: K-562 leukemia
HOP-92 NSCLC = test system: HOP-92 NSCLC
HCT-116 colon = test system: HCT-116 colon
UACC-62 melanoma = test system: UACC-62 melanoma
IGROV1 ovarian = test system: IGROV1 ovarian
ACHN renal = test system: ACHN renal
SR leukemia = test system: SR leukemia
EKVX NSCLC = test system: EKVX NSCLC
SNB-78 CNS = test system: SNB-78 CNS
OVCAR-3 ovarian = test system: OVCAR-3 ovarian
COLO 205 colon = test system: COLO 205 colon
A498 renal = test system: A498 renal
SNB-19 CNS = test system: SNB-19 CNS
HCT-15 colon = test system: HCT-15 colon
NCI-H460 lung = test system: NCI-H460 lung
SNB-75 CNS = test system: SNB-75 CNS
DMS 114 small cell lung = test system: DMS 114 small cell lung
LXFL 529 NSCLC = test system: LXFL 529 NSCLC
TK-10 renal = test system: TK-10 renal
NCI-H226 lung = test system: NCI-H226 lung
MOLT-4 leukemia = test system: MOLT-4 leukemia
SF-268 CNS = test system: SF-268 CNS
SK-MEL-2 melanoma = test system: SK-MEL-2 melanoma
SN12C renal = test system: SN12C renal
A549 NSCLC = test system: A549 NSCLC
OVCAR-5 ovarian = test system: OVCAR-5 ovarian
MALME-3M melanoma = test system: MALME-3M melanoma
NCI-H23 lung = test system: NCI-H23 lung
M14 melanoma = test system: M14 melanoma
DMS 273 small cell lung = test system: DMS 273 small cell lung
SW-620 colon = test system: SW-620 colon
HL-60(TB) leukemia = test system: HL-60(TB) leukemia
HCC-2998 colon = test system: HCC-2998 colon
UACC-257 melanoma = test system: UACC-257 melanoma
RXF 393 renal = test system: RXF 393 renal
OVCAR-4 ovarian = test system: OVCAR-4 ovarian
SF-295 CNS = test system: SF-295 CNS
HOP-18 NSCLC = test system: HOP-18 NSCLC
LOX IMVI melanoma = test system: LOX IMVI melanoma

Measured: TGI

CCOC(=O)Cn1c(=O)n(C)c(=O)c2c1ncn2Cc1ccccc1
not listed: HL-60(TB) leukemia | HCC-2998 colon | UACC-257 melanoma | RXF 393 renal | OVCAR-4 ovarian | SF-295 CNS | HOP-18 NSCLC | LOX IMVI melanoma
> 100 µM: all other assays above

O=C(OCc1ccccc1)C(Cc1ccccc1)N(Cc1ccccc1)Cc1ccccc1 (centres undefined)
not listed: 786-0 renal | NCI-H226 lung | HOP-18 NSCLC | LOX IMVI melanoma
> 100 µM: all other assays above

COC1=C(Br)C(=O)c2nc(C)ccc2C1=O
15.5 µM: HOP-92 NSCLC
29.3 µM: CAKI-1 renal
24.5 µM: RXF 393 renal
34.7 µM: OVCAR-5 ovarian | SF-295 CNS
19.5 µM: OVCAR-3 ovarian
24.3 µM: LOX IMVI melanoma
33.8 µM: SNB-75 CNS
27 µM: NCI-H23 lung
33.4 µM: EKVX NSCLC
33.1 µM: SK-MEL-28 melanoma | SF-268 CNS
32.2 µM: HCC-2998 colon
28.4 µM: M14 melanoma
34.9 µM: HT29 colon
24 µM: ACHN renal
32 µM: SK-MEL-5 melanoma
15.8 µM: NCI-H522 lung
24.6 µM: COLO 205 colon
38.5 µM: A549 NSCLC
38.2 µM: NCI-H226 lung
> 27.8 µM: K-562 leukemia
33.3 µM: KM20L2 colon
> 22.6 µM: RPMI-8226 leukemia
> 55.1 µM: SNB-19 CNS
22.2 µM: DLD-1 colon
27.7 µM: HCT-15 colon
21.1 µM: HCT-116 colon
36.4 µM: A498 renal
30.5 µM: MALME-3M melanoma
16.6 µM: OVCAR-8 ovarian
33.2 µM: UACC-62 melanoma
> 60.3 µM: HOP-62 NSCLC
27.8 µM: M19-MEL melanoma
6.79 µM: SR leukemia
30.9 µM: HOP-18 NSCLC
31.6 µM: DMS 114 small cell lung
33.9 µM: IGROV1 ovarian
> 20.8 µM: MOLT-4 leukemia
31.7 µM: KM12 colon | NCI-H460 lung
27.2 µM: 786-0 renal
26.6 µM: UACC-257 melanoma
26.3 µM: OVCAR-4 ovarian
30.1 µM: SK-MEL-2 melanoma
32.4 µM: UO-31 renal | TK-10 renal
33.6 µM: SK-OV-3 ovarian
31.8 µM: DMS 273 small cell lung
21.7 µM: SW-620 colon
28.5 µM: U251 CNS
29.1 µM: SN12C renal
16.7 µM: LXFL 529 NSCLC
36.1 µM: SF-539 CNS
41.6 µM: SNB-78 CNS
